Columns and labels:
[1] = target: T1, proteins of S. cerevisiae BY4742 cell lysates (Saccharomyces cerevisiae, UniProt P10081); test: DARTS with yeast cell lysates incubated in vitro with resveratrol, mass spectrometry of protected bands; assay type: binding; settings: 1 mM resveratrol, Upper band
T1 construct: endogenous in cells; host or cells: S. cerevisiae BY4742
Protocol: (§1) For DARTS using yeast cell lysates incubated in vitro with resveratrol (FIG. 4B), S. cerevisiae BY4742 cells were used.
(§2) Gel bands were cut out and prepared for mass spec analysis with trypsin digestion as described in SI. Peptides were analyzed by LC/MS/MS on a Thermo LTQ-Orbitrap mass spectrometer with an Eksigent LC pump. For quantitative comparison of protein and peptide abundances, MS spectra were analyzed using the differential workflow of Rosetta Elucidator (Rosetta Inpharmatics) (54). Annotation was performed using PeptideTeller and ProteinTeller (see SI).
(§3) Proteins were initially identified by searching the spectra against the human International Protein Index database (version 3.46) and the S. cerevisiae Swissprot database (May 2008) using the SEQUEST algorithm (Eng et al. (1994) J Am Soc Mass Spectrom 5: 976-989) integrated into the Bioworks software package. Each peptide met the following criteria: XCorr ≧2 (+1), ≧3 (+2), ≧4 (+3), ≧5 (+4), and DeltaCN>0.1. For quantitative comparison of protein and peptide abundances, MS spectra were analyzed using the differential workflow of the Rosetta Elucidator software system (Rosetta Inpharmatics) (Neubert et al. (2008) J Proteome Res 7: 2270-2279). Annotation was performed using PeptideTeller and ProteinTeller with a minimum probability of 0.99 and predicted error of 0.0. Protein ratio data were generated with a P-value cutoff of 0.01 for all proteins with a peptide number >1. Intensity scaling was performed against the mean of feature signals, with 10% of outliers removed from the baseline dataset. Similar results were obtained in analysis without intensity scaling (FIG. 9A).
(§4) For the DARTS experiment using yeast cell lysates incubated in vitro with resveratrol, BY4742 cells were suspended in yeast extraction buffer (Grant et al. (1999) Meth. Mol Biol 119: 311-317) [(40 mM HEPES/KOH pH 7.5, 350 mM NaCl, 0.5 mM DTT, 10% glycerol, 0.1% Tween-20) supplemented with Roche complete protease inhibitor cocktail (Roche Diagnostics, Indianapolis, Ind.)]. Cell pellets were broken with glass beads for 2×40 s at 4° C. in a FastPrep-24 (MP Biomedicals, Solon, Ohio). Whole cell lysates were collected after centrifugation (1500 rpm, 10 min). Lysates were incubated with ethanol control or 1 mM resveratrol for 30 min at room temperature. Samples were then divided into two aliquots, which underwent proteolysis with thermolysin or mock proteolysis.

[2] = system: proteins of S. cerevisiae BY4742 cell lysates; test: as above; assay type: binding; settings: 1 mM resveratrol
Protocol: as §1, §2, §3, §4

[3] = system: eIF4A-dependent translation in HEK 293 cells; test: In vivo translation assay with bicistronic dual-luciferase reporters; assay type: cell-based, human; settings: HEK293, Dual-Glo
Description: FIG. 4A: Chemical structure of resveratrol. FIG. 4B: Yeast cell lysates and human HeLa cell lysates were each treated with resveratrol in vitro followed by thermolysin digestion and silver staining. Protected bands of similar size were detected. FIG. 4C: Resveratrol protects TAP-tagged eIF4A, but not an unrelated Htb2, protein from proteolysis. Arrow: protein protected from subtilisin proteolysis (H. sapiens (SEQ ID NO:1), M. musculus (SEQ ID NO:2), X. laevis (SEQ ID NO:3), D. melanogaster (SEQ ID NO:4), C. elegans (SEQ ID NO:5), S. purpuratus (SEQ ID NO:6), C. reinhardtii (SEQ ID NO:7), A. thaliana (SEQ ID NO:8), H. andersenii (SEQ ID NO:9), S. cerevisiae (SEQ ID NO:10)). FIG. 4D: Resveratrol inhibits eIF4A-dependent translation in HEK 293 cells as assayed by bicistronic translation reporters. […] FIG. 4E: eIF4A is required for longevity in resveratrol-treated animals. Resveratrol (50 μM) lengthens the lifespan of wild-type N2 worms fed control (gfp) RNAi (green), but not worms fed eIF4A (inf-1) RNAi (red) or daf-16 RNAi (blue). gfp(RNAi), mVeh=19 (n=74), mRSV=20 (n=78), P=0.0006***; inf-1(RNAi), mVeh=26 (n=76), mRSV=24 (n=79), P=0.4687; daf-16(RNAi), mVeh=17 (n=78), mRSV=17 (n=76), P=0.3305. m, mean lifespan (days of adulthood); n, number of animals tested.
The molecular mechanisms underlying resveratrol's lifespan effect have been controversial (Howitz et al. (2003) Nature 425: 191-196; Kaeberlein et al. (2005) J Biol Chem 280: 17038-17045), and whether Sir2 serves as a direct target for resveratrol is an interesting problem that is being pursued. […]
HEK293 cells in DMEM+10% FBS were pre-treated with 50 μM resveratrol for 1 hr, and transfected with bicistronic translation reporter plasmids using LipoD293 DNA in vitro transfection reagent (SignaGen). […] Reporter activity was measured 33 hr post-transfection using the Dual-Glo luciferase assay system (Promega) with an Analyst HT plate reader (Molecular Devices). […]

T1 sequence (P10081 whole entry): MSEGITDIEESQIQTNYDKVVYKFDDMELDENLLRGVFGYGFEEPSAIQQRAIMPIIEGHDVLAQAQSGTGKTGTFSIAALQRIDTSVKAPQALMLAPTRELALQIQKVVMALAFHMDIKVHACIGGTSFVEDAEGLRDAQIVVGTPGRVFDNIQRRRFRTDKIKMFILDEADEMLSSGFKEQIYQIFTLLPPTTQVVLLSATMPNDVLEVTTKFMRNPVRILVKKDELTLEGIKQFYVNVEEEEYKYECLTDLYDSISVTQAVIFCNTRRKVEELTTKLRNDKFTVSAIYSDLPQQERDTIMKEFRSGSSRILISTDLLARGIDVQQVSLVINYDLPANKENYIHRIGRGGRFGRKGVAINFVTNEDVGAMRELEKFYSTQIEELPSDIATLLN

Oc1ccc(C=Cc2cc(O)cc(O)c2)cc1 [resveratrol] was tested, and the “Fold Change, ATP-dependent RNA helicase eIF4A” value [1] was 1.961, the “Fold Change, 40S ribosomal protein S12” value ([2]; Lower band) was 2.07 and the “Fold Change, 40S ribosomal protein S15” value ([2]; Lower band) was 3.677. The “Fold Change, 40S ribosomal protein S16” value ([2]; Lower band) was 2.906, the “Fold Change, 40S ribosomal protein S18” value ([2]; Lower band) was 2.412 and the “Fold Change, 40S ribosomal protein S19” value ([2]; Lower band) was 1.965. The “Fold Change, 40S ribosomal protein S24” value ([2]; Lower band) was 1.481, the “Fold Change, 40S ribosomal protein S26-B” value ([2]; Lower band) was 2.429 and the “Fold Change, 60S ribosomal protein L14-A” value ([2]; Lower band) was 1.614. For the same compound, the “Fold Change, 60S ribosomal protein L25” value ([2]; Lower band) was 3.564, the “Fold Change, 60S ribosomal protein L26-A” value ([2]; Lower band) was 9.181 and the “Fold Change, 60S ribosomal protein L26-B” value ([2]; Lower band) was 11.107. For the same compound, the “Fold Change, 60S ribosomal protein L34” value ([2]; Lower band) was 2.383, the “Fold Change, 60S ribosomal protein L35” value ([2]; Lower band) was 3.774 and the “Fold Change, Histone H2A” value ([2]; Lower band) was 3.002. For the same compound, the “Fold Change, Histone H2B” value ([2]; Lower band) was 2.229, the “Fold Change, Ornithine aminotransferase” value ([2]; Lower band) was 2.531 and the “Fold Change, 40S ribosomal protein S23” value ([2]; Upper band) was 4.84. For the same compound, the “Fold Change, 40S ribosomal protein S26” value ([2]; Upper band) was 4.701, the “Fold Change, 60S ribosomal protein L21-A” value ([2]; Upper band) was 2.777 and the “Fold Change, 60S ribosomal protein L24” value ([2]; Upper band) was 6.05. The “Fold Change, 60S ribosomal protein L25” value ([2]; Upper band) was 2.713, the “Fold Change, 60S ribosomal protein L27-A” value ([2]; Upper band) was 2.554 and the “Fold Change, 60S ribosomal protein L28” value ([2]; Upper band) was 1.804. For the same compound, the “translation from the eIF4A-independent HCV IRES” value [3] was “unaffected”, the “EMCV IRES-mediated translation” value ([3]; requires eIF4A) was “inhibited in a dose-dependent manner” and the cap-dependent translation ([3]; requires eIF4A) was “inhibited in a dose-dependent manner”.

From patent publication US8703438B2, “Ligand binding stabilization method for drug target identification” (The Regents of the University of California, priority 2008, dated 2014)
